Values of other authors in US20260335255A1, “PHARMACEUTICAL COMPOSITIONS” (priority 2022, published 2026).
In brackets after ≈: the same amount, converted by molar mass. Where a name gives a salt, the structure may show the parent alone.

Assays:
patients with depression = conditions: 0.5 mg/kg; 40 min infusion
patients [1] = conditions: for side effects: b8: single subanesthetic dose
patients [2] = conditions: anesthetic use; Pediatric Anesthesia 2005 15: 91-97

Compound	thought disorder and withdrawal-retardation (healthy volunteers)	concentration needed for therapeutic efficacy in patients with depression (patients with depression)	solubility in water	effect on memory (patients [1]; background)	side effects (patients [1]; background)	depressive symptoms (patients [1]; single subanesthetic dose)	duration of action compared with racemic ketamine (patients [2])
CNC1(c2ccccc2Cl)CCCCC1=O (racemic) [Ketamine]	significant levels of thought disorder and withdrawal-retardation	185 ng/mL	200 mg/mL (≈ 841 mM)	direct effects on free recall and recognition memory	transient dissociation and psychotomimetic side effects and hemodynamic changes	reduces depressive symptoms	
CN[C@]1(c2ccccc2Cl)CCCCC1=O [S(+) ketamine]							significantly shorter acting than racemic ketamine
CNC1(c2ccccc2Cl)CCCCC1=O (centres unmarked) [ketamine hydrochloride, Ketamine Hydrochloride]					blurred vision, double vision, dream-like feeling, dizziness, drowsiness, jerky muscle movements, loss of appetite, nausea, vomiting, sleep problems such as insomnia		
